We go through 19 compounds from PubChem BioAssay (NCI).

The structures appear in SMILES notation. Where “and” joins values, the source holds several entries; their conditions need not be identical. Equal values may be shown once.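 Interpolation was linear, between the two tested concentrations surrounding the appropriate level; five concentrations were tested over 48 hours in 96-well plates. GI50: concentration for 50% inhibition of growth. The concentration for full growth arrest is given as TGI.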 Some results are limits rather than exact numbers.

Common to all, as to experiment: NCI tumour cell line growth inhibition, 48 h
In test [1] the test system is MDA-MB-231 breast.
In test [2] the test system is SF-295 CNS.
The subject of test [3] is U251 CNS.
Test [4] has as its system SK-MEL-2 melanoma.
The subject of test [5] is HT29 colon.
Test [6] relates to CCRF-CEM leukemia.
For test [7], the system named is SNB-75 CNS.
In test [8] the test system is COLO 205 colon.
The test system of test [9] is OVCAR-3 ovarian.
Test [10] deals with SF-539 CNS.

On to `CCOc1cc(C(C)(C)C)ccc1C1=N[C@H](c2ccc(Cl)cc2)[C@H](c2ccc(Cl)cc2)N1C(=O)N1CCN(CC#Cc2cccc3c2CN([C@@H]2CCC(=O)NC2=O)C3=O)CC1`, for which the GI50 is 0.0192 µM in test [1]; 2.53 µM in [2]; 5.47 µM in [3]; 2.98 µM in test [4]; 2.41 µM in [5]; 0.023 µM in test [6]. Also, the GI50 in test [7] was 0.1 µM; in [8], 0.472 µM; in test [9], 2.81 µM; in test [10], 4.49 µM. In addition, the TGI was 0.0797 µM in test [1]; 19.2 µM in [2]; above 47 µM in test [3]; 13.6 µM in [4]; above 34.8 µM in test [5]; above 100 µM in test [6]. In addition, the TGI in [7] was above 43.2 µM; in test [9], 15.9 µM; in [10], above 100 µM.

For `Oc1ccc2ccccc2c1N=Nc1cccc2ccccc12`, the TGI in [1], in test [2], in [3], in test [4], in test [5] and in test [6] was above 100 µM in each case. Moreover, the TGI in test [7] was > 100 µM and 80.4 µM; in test [8] it was above 100 µM; in test [9] it was above 100 µM; in test [10], 76.3 µM.

`COc1ccc2c(c1)C(=O)/C(=C/c1cccc(OCC(=O)c3ccccc3)c1)O2`: the GI50 was 7.62 µM in [1]; 20 µM in test [2]; 7.97 µM in [3]; 16.7 µM in test [4]; 3.1 µM in test [5]; 0.81 µM in test [6]. For the same compound, the GI50 in [7] was 10.7 µM; in [8], 1.9 µM; in [9], 1.83 µM; in test [10] it was 3.79 µM. In addition, the TGI in test [1] was determined as 23.2 µM; in test [2], 38.1 µM; in [3], 20.8 µM; in test [4], 30.5 µM; in test [5] it was 7.56 µM; in [6] it was 2.42 µM. In addition, the TGI in [7] is 22.9 µM; in test [8] it was 3.57 µM; in test [9], 3.36 µM; in [10] it was 13.8 µM.

Turning to `CCCOC(=O)N[C@H]1CCc2c(Cl)c(OC)c(OC)c(OC)c2-c2ccc(SC)c(=O)cc21`, the GI50 is below 0.01 µM in [1]; below 0.01 µM in [2]; below 0.01 µM in test [3]; 1.88 µM in test [4]; below 0.01 µM in test [5]; below 0.01 µM in test [6]. Further, the GI50 in test [7], in test [9] and in test [10] was below 0.01 µM each time. The TGI was 4.71 µM in [1]; 12.2 µM in [3]; 29.9 µM in test [4]; 37.6 µM in test [5]; above 100 µM in test [6]; 14.5 µM in test [7]. Besides, the values for the TGI in test [9] and in test [10] were below 0.01 µM and below 0.0356 µM, respectively.

In the case of `Cc1nnc(-c2ccc(C)c(-c3ccc(C(=O)Nc4cccc(C#N)c4)cc3)c2)o1`, the GI50 in test [1], in [2], in test [3], in [4], in test [5] and in test [6] was above 25 µM each time. The GI50 in test [7], in test [8], in [9] and in [10] was above 25 µM each time. Further, the TGI in test [1], in test [2], in [3], in test [4], in [5] and in test [6] was above 25 µM each time. Also, the TGI in test [7], in test [8], in test [9] and in test [10] was above 25 µM in each case.

Take `O=C1C(=O)c2ccccc2C(O)=C1C(C1=C(O)c2ccccc2C(=O)C1=O)c1ccc(Cl)cc1`: the TGI was 22.7 µM in [1]; 13.8 µM in [2]; 16.3 µM in [3]; 24.1 µM in [4]; 20.9 µM in test [5]; above 46 µM in [6]. For the same compound, the TGI in test [7] turned out to be 9.83 µM; in test [8], 35.6 µM; in test [9], 11.4 µM; in test [10] it was 32.9 µM.

For the compound `CCOc1cccc(/C=N/NC(=O)c2cccc(Nc3ccnc(C(F)(F)F)c3)c2)c1O`, the GI50 was 0.888 µM in test [1]; 2.4 µM in test [2]; 0.886 µM in test [3]; 8.5 µM in test [4]; 5.34 µM in test [5]; 0.18 µM in test [6]. Also, the GI50 was 11.2 µM in test [7], 0.532 µM in test [8], 0.401 µM in test [9] and 1.32 µM in test [10]. Also, the TGI in test [1] was above 91.1 µM; in test [2], 27.9 µM; in test [3], above 47.1 µM; in test [4], 39.9 µM; in test [5] it was above 82.7 µM; in test [6], above 100 µM. Besides, the TGI in test [7] was found to be 39.2 µM; in test [8], 18.4 µM; in test [9], 24.4 µM; in test [10] it was 10.6 µM.

In the case of `C=C(C)C1CC2(C)C(C)CC(O)CC2C(OC(=O)C=C(C)C)C1O` (configuration not stated), the TGI in test [1] was above 100 µM; in test [2], 84.3 µM; in test [3] it was above 100 µM; in test [4] it was above 100 µM; in [5], 69.8 µM; in test [6], 84.7 µM. Besides, the results for the TGI in test [7], in test [8] and in test [10] were 40.5 µM, 32.4 µM and above 100 µM, respectively.

As to `N/N=C\c1c2ccccc2c(=O)n2c1oc1ccccc12`, the GI50 in test [1] was 10.8 µM; in test [2], 2.61 µM; in test [3], 14.6 µM; in test [4], 26.5 µM; in [5], 22.1 µM; in [7], 11.5 µM. The GI50 in test [8] was 18.3 µM; in [9] it was 14.7 µM; in test [10] it was 11.4 µM. The TGI in test [1] was 25 µM; in [2], 12.3 µM; in [3], 27.7 µM; in test [4], above 100 µM; in test [5] it was above 100 µM; in [7], 31 µM. Besides, the TGI is 34.8 µM in [8], 28 µM in test [9] and 23.6 µM in [10].

For the compound `COc1ccc2c(c1)C(=O)CCc1cc(OC)c(OC)c(OC)c1-2`, the GI50 in [1], in test [2], in test [3], in test [4], in test [5] and in test [6] was below 0.01 µM each time. Besides, the GI50 in test [8] was below 0.01 µM. Also, the TGI in [1] is above 100 µM; in test [2], above 100 µM; in test [3], 0.18 µM; in test [6], above 100 µM; in test [8] it was 16.9 µM; in test [10], 87.1 µM.

`O=NNc1ccc2ccccc2n1`: the TGI in test [1], in test [2], in [3], in test [4], in test [5] and in [6] was above 100 µM in each case. The TGI in test [7], in test [9] and in test [10] was above 100 µM each time.

On to `[N-]=[N+]=NCCCn1c2c(c3ccc([N+](=O)[O-])cc3c1=O)C(=O)c1ccccc1-2`, for which the GI50 in test [1] was 3.57 µM; in [2], 4.82 µM; in test [3] it was 4.28 µM; in test [4], above 100 µM; in test [5], above 100 µM. Moreover, the TGI is 43.2 µM in test [1]; above 100 µM in test [2]; above 100 µM in [3]; above 100 µM in test [4]; above 100 µM in test [5].

On to `Cc1ccc(S(=O)(=O)N=Nc2c(O)[nH]c3cc(O)c(C(=O)O)cc23)cc1`, for which the TGI in test [1], in [2], in [3], in [4], in [5] and in test [6] was above 100 µM each time. Also, the TGI in test [7], in [8] and in test [9] was above 100 µM throughout.

As to `C=C(C)[C@@H]1CC[C@]2(COCCCN)CC[C@]3(C)[C@H](CC[C@@H]4[C@@](C)(CCCNCCCN)[C@H](C(=C)C)CC[C@]43C)[C@@H]12`, the GI50 in [1] was 1.8 µM; in test [2] it was 1.94 µM; in test [3], 1.7 µM; in test [4] it was 1.89 µM; in test [6] it was 2.39 µM; in test [8], 1.78 µM. The GI50 in [9] is 1.81 µM; in test [10] it was 1.76 µM. For the same compound, the TGI turned out to be 3.29 µM in test [1]; 3.83 µM in [2]; 3.19 µM in [3]; 3.71 µM in [4]; 7.34 µM in test [6]; 3.48 µM in test [8]. The values for the TGI in test [9] and in test [10] were 3.36 µM and 3.21 µM, respectively.

With `C=C1c2c(C)nn(-c3ccc(C#CCOC4OC(CO)C(O)C(O)C4O)cc3)c2N(C)C23C[C@H]1C1(C)c4c(C)nn(-c5ccc(C#CCOC6OC(CO)C(O)C(O)C6O)cc5)c4N(C)C(C)(C[C@H]12)C3` (some centres not stated), the GI50 in [1] is 1.5 µM; in test [3], 1.19 µM; in [4], 1.76 µM; in test [5], 1.63 µM; in test [6], 1.04 µM; in test [8], 1.47 µM. Further, the figures for the GI50 in [9] and in test [10] were 1.52 µM and 1.78 µM, respectively. Moreover, the TGI in test [1] stood at 3.06 µM; in test [3], 2.59 µM; in [4] it was 3.39 µM; in test [5], 4.21 µM; in test [6] it was 5.03 µM; in [8], 2.88 µM. In addition, the TGI stood at 3.8 µM in test [9] and 3.33 µM in [10].

As for `CCN1CCCc2cc3c(C(F)(F)F)cc(=O)oc3cc21`, the TGI is above 100 µM in [1]; above 100 µM in test [2]; above 100 µM in test [3]; above 100 µM in test [4]; above 100 µM in [5]; 96.7 µM in [7]. For the same compound, the TGI in test [8], in test [9] and in test [10] was above 100 µM throughout.

With `Nc1ncc(-c2cnn(C3CCNCC3)c2)cc1-c1nc2cc(Cl)ccc2o1`, the GI50 was 1.66 µM in [1]; 1.96 µM in [2]; 1.38 µM in [3]; 0.352 µM in [5]; 0.222 µM in test [6]; 1.65 µM in test [7]. Further, the GI50 in test [8] is 1.41 µM; in test [9], 1.73 µM; in [10], 1.55 µM. Further, the TGI in test [1] came to 3.23 µM; in [2], 3.68 µM; in test [3] it was 2.73 µM; in test [5] it was 1.25 µM; in test [6] it was 0.541 µM; in [7] it was 3.06 µM. Moreover, the TGI in [8] came out at 2.91 µM; in test [9] it was 3.26 µM; in test [10], 2.91 µM.

For `O=C(O)CCCc1ccc2ccc3ccccc3c2c1`, the TGI in test [1] was above 100 µM; in test [2] it was above 100 µM; in test [3] it was above 100 µM; in test [4], above 100 µM; in [5], above 100 µM; in test [7], 87.4 µM. In addition, the TGI in test [8] and in test [9] was above 100 µM throughout.

For the compound `CN(C)C/C=C/C(=O)Nc1ccc(C(=O)N[C@@]2(C)CCC[C@@H](Nc3ncc(Cl)c(-c4c[nH]c5ccccc45)n3)C2)nc1`, the GI50 in [1] is 0.0145 µM; in [2] it was 0.0126 µM; in test [4], 0.0129 µM; in [5] it was below 0.01 µM; in test [6], below 0.01 µM; in [7], 0.0137 µM. Further, the results for the GI50 in [8] and in test [10] were 0.01 µM and 0.0195 µM, respectively. Moreover, the TGI in [1] is 1.22 µM; in test [2] it was 1.1 µM; in [4], 0.0511 µM; in test [5] it was 1.09 µM; in test [6], 1.3 µM; in [7], 0.0427 µM. Besides, the figures for the TGI in test [8] and in test [10] were 0.026 µM and 0.0929 µM, respectively.
